The values that follow come from the NIST ThermoML archive (doi:10.1021/je3003783).

Numbers after ± are expanded uncertainties.

For the series the following is noted: 101.33 kPa, Liquid, Vibrating tube method.

One may read the mass density as mass per unit of volume. For the compound `CCCCn1cc[n+](C)c1.[Cl-]` [1-butyl-3-methylimidazolium chloride], the mass density amounted to 1081.59 ± 0.38 kg/m3 (298.15 K), 1067.28 ± 0.37 kg/m3 (323.15 K), 1053.35 ± 0.35 kg/m3 (348.15 K) and 1045.06 ± 0.34 kg/m3 (363.15 K).

In the case of `CCCCCCn1cc[n+](C)c1.[Cl-]` [1-hexyl-3-methylimidazolium chloride], the mass density (298.15 K) came out at 1040.92 ± 0.34 kg/m3, the mass density (323.15 K) was found to be 1026.73 ± 0.32 kg/m3, the mass density (348.15 K) was 1012.81 ± 0.31 kg/m3 and the mass density (363.15 K) was 1004.49 ± 0.3 kg/m3.

Regarding `CCCCCCCC[n+]1ccn(C)c1.[Cl-]` [1-methyl-3-octylimidazolium chloride], the mass density (298.15 K) is reported as 1012.35 ± 0.31 kg/m3, the mass density (323.15 K) was 998.05 ± 0.3 kg/m3, the mass density (348.15 K) was found to be 983.99 ± 0.3 kg/m3 and the mass density (363.15 K) amounted to 975.67 ± 0.3 kg/m3.
